Source: US7247441B2, “Nucleic acid sequence and protein in addition to polypeptides coding for mannitol dehydrogenases or parts thereof and the production and use thereof in diagnosis and therapy” (Biomay Produktions- Und Handels-Aktienge Sellschaft, priority 2002, dated 2007)

Biological target: T1, Cladosporium herbarum mannitol dehydrogenase (Cladosporium herbarum, UniProt P0C0Y5)
T1 construct: the enzyme activity was determined with the traditionally purified protein; from tissue; host or cells: Cladosporium herbarum extract (ammonium sulfate precipitation, HIC, anion exchange)
Test: Enzyme activity determination, absorption of NADPH at 340 nm
Type: biochemical
Protocol: The experiments reveal that the highly purified major allergen of Cladosporium herbarum is indeed a mannitol dehydrogenase which catalyzes the following metabolic reaction: Fructose+NADPH+H^+ ? mannitol+NADP^+. […] The method of the activity determination is described in example 3.
To confirm the results according to the invention, the enzyme activity was determined with the traditionally purified protein. The absorption of NADPH was measured in a photometer at 340 nm.
• 50 mM Tris-HCl, pH 7.5 • 0.25 mM NADPH or NADH • D-fructose or fructose-6-phosphate (0.1; 0.2; 0.4; 0.6; 0.8; 1.0; 1.2 M) • H2O to 1 ml • the reaction is started with 0.5 μl of MtDH Results: • Reaction with fructose and NADPH • No reaction with fructose-6-phosphate and NADH

T1 sequence (P0C0Y5 whole entry): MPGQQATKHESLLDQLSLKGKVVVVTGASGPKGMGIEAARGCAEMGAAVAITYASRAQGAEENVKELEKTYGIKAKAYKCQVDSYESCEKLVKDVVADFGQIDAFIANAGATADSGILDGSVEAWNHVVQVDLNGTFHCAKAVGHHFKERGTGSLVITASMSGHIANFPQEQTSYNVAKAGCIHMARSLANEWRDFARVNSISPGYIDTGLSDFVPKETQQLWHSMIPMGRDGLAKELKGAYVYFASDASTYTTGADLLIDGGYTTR

SMILES	activity as cosubstrate or substrate of the mannitol dehydrogenase	effect on the reaction fructose + NADPH to mannitol + NADP+
NC(=O)C1=CN([C@@H]2O[C@H](COP(=O)(O)OP(=O)(O)OC[C@H]3O[C@@H](n4cnc5c(N)ncnc54)[C@H](O)[C@@H]3O)[C@@H](O)[C@H]2O)C=CC1 [NADH]	not active as cosubstrate	–
O=C(CO)[C@@H](O)[C@H](O)[C@H](O)COP(=O)(O)O [fructose-6-phosphate]	not active as substrate	inhibitory effect
